SMILES | melting point
NC(Cc1ccc(O)c(O)c1)P(O)O (stereo not given) | 237 to 238 °C
CCCC(=O)Oc1ccc(-c2ccc(C#N)cc2)cc1 | 77.9 to 78.2 °C
CCCc1c(Cl)nc(NC=O)nc1Cl | 92 to 94 °C
Cc1cc(C)nc(Oc2ccnc3cc(Cl)ccc23)n1 | 104 to 105 °C
CCOC(=O)NC(=CC(=O)[C@H](Cc1ccccc1)N(Cc1ccccc1)Cc1ccccc1)Cc1ccccc1 | 91 to 93 °C
O=C1NCN(c2ccc(Cl)cc2)C12CCN(Cc1ccnc(-c3ccc(Cl)cc3)c1)CC2 | 223 to 225 °C
CC(=O)Nc1ccc(-c2ccc3c(c2)C(C)(C)OC(=O)N3)cc1F | 245 to 247 °C
CN1C(=O)[C@H](NC(=O)Nc2ccc3c(c2)CCC3)N=C(c2ccccc2)c2ccccc21 | 156 to 158 °C
CCCc1c(OCCCCCC(=O)NCCc2ccncc2)ccc(C(C)=O)c1O | 80 to 83 °C
COc1cc2c(c(Cl)c1Cl)C(=O)C(CCCCl)(CCC(C)=O)C2 (stereo not given) | 120 to 122 °C
CCCN(CCC)CCc1ccc(OC)c(C(=O)O)c1OC | 174 to 177 °C
CCOC(=O)c1cnc2ccc(C#N)cc2c1NCc1ccc(OC)c(Cl)c1 | 161 to 162 °C
O=C1Nc2cccc(-c3ccc(O)cc3)c2/C1=C/c1ccc[nH]1 | 271 to 273 °C
CCCCNC(=O)c1nc2cnn(CC)c2nc1C | 64 to 65 °C
CCC(=O)Nc1cc(-c2c(-c3cccc(C)c3)nc3cccnn23)ccn1 | 138 to 139 °C
O=C(NCCCCOc1ccc(-c2ccc(=O)[nH]n2)cc1)c1cccnc1 | 155 to 157 °C
Cc1sc2[nH]c(=S)nc(N)c2c1C | > 260 °C
COc1ccc(CCNC(=O)CNc2cc(Cl)ccc2C(N)=O)cc1OC | 168 °C
Nc1nc(N)nc(-c2ccc(Sc3ccccc3)cc2)n1 | 213 to 215 °C
FC(F)(F)c1cc(Cl)c(-n2cc(I)nn2)c(Cl)c1 | 194 to 195 °C
CN(C)CCOC(=O)c1cnn2c(-c3cccc(C(F)(F)F)c3)ccnc12 | 119 to 120 °C
O=[N+]([O-])c1ccc(SSc2nccc(O)n2)c(C(Cl)(Cl)Cl)c1 | 174 °C
NC(=O)C[C@H](NC(=O)c1ccc(OCc2ccccc2)cc1OCc1ccccc1)C(=O)N1CCN(Cc2ccccc2)CC1 | 66 to 68 °C
Cc1cc(-c2ncn3c(C(F)(F)F)cc(-c4ccc(F)c(Cl)c4)nc23)ccn1 | 255 °C
CC(=O)N1CCN=C1c1c(Cl)nc(N)nc1Cl | 221 °C
CN(C)C(=O)c1ccc(CNC(=O)C2Cc3ccccc3N2S(=O)(=O)c2ccc(-c3cccc(C(F)(F)F)c3)cc2)cc1 (stereo not given) | 70 °C
CC(=NO)C12CCCC(C1)C1CCC2C1 (stereo not given) | 157 to 158 °C

SMILES | melting point
CCC(=O)c1cnc(C(=O)C(C)C)cn1 | 70 to 71 °C
COc1ccc(C(=O)Nc2ccc(C)c(C)c2)cc1N | 138 to 142 °C
CCC(=O)C(O)=NNc1cc([N+](=O)[O-])ccc1Br | 263 to 265 °C
Cc1ccc(OC(Cc2ccc(OCCNC(=O)c3ccc(-c4ccccn4)cc3)cc2)C(=O)O)cc1 (stereo not given) | 129 to 131 °C
O=C(Nc1ccc2[nH]ccc2c1)c1cc2cc(F)ccc2n1Cc1cccc(F)c1 | 158 to 163 °C
COc1ccc(C(=O)Nc2ccc(F)cc2)cc1N([N+](=O)[O-])S(=O)(=O)c1ccccc1 | 221 to 240 °C
Clc1nnc(C(Cl)(Cl)Cl)s1 | 41 °C
Cc1nc(-c2ccc(C(F)(F)F)cc2)sc1CSc1ccc(OCC(=O)O)c2ccccc12 | 181 to 183 °C
CC(=O)Nc1cccc(-c2ccccc2S(=O)(=O)Nc2onc(C)c2C)c1 | 168 to 171 °C
C=C(CCC)C(=O)c1cc2oc(C(=O)O)cc2c(C)c1C | 172 °C
Cc1cc(C(N)=O)co1 | 158 °C
CC(=O)Nc1ccc(N=O)cc1 | 179 to 180 °C
COCC(=O)c1c[nH]c2ncc(-c3cc(OC)c(OC)c(OC)c3)nc12 | 229 to 230 °C
O=c1ccn(-c2cccc(S(=O)(=O)c3nc4ccccc4[nH]3)c2)nc1-c1ccnn1-c1ccccc1 | 160 to 161 °C
Cc1nc(-c2cc(C)c(OCCCc3cc(C(F)(F)F)no3)c(C)c2)no1 | 62 to 64.5 °C
OCc1cc(OCc2ccccc2)c(OCc2ccccc2)cn1 | 96.6 °C
CCOC(=O)Cc1ccc(CNC(=O)C=Cc2ccc3[nH]cc(CC#N)c3c2)cc1 | 125 to 130 °C
CCCCc1oc2ccccc2c1C(=O)NCc1ccc2c(Br)c(OCC#N)ccc2c1 | 154 to 157 °C
O=C(COc1cccc(CCNC(=O)OCc2ccccc2)c1)Nc1nnn[nH]1 | 164 to 167 °C
CCN1CCN(C2c3c(C)c(N4CCN(c5ccc(OC)cc5)CC4)c(C)c(C)c3OC2(C)C)CC1 (stereo not given) | 98 to 100 °C
CC(=O)C1=C(O)C(=C(C)Nc2ccc(F)cc2)C(=O)OC1=O | 199 to 201 °C
Cc1cnc(C(=O)NCCc2ccc(S(N)(=O)=O)cc2)cn1 | 190 to 200 °C
CCC1(Cl)C(=O)c2c(cc(OCC(=O)O)c(Cl)c2Cl)C1C (stereo not given) | 208 to 210 °C
O=C1CCCCCCCCCCCCCCC1 | 67.7 °C
COC(=O)c1ccc2c(c1)CN(c1c(F)cc3c(=O)c(C(=O)O)cn(-c4ccc(F)cc4)c3c1F)C2 | 236 to 240 °C
CC(=O)Nc1ccc(F)c(-c2cccnc2)c1F | 154 to 155 °C

Results, then the molecule that gave them:

melting point | SMILES
146 to 148 °C | CCCCCCCNC(=O)Nc1ccccc1C(=O)NCC1CCN(C(c2ccccc2)c2ccccc2)CC1
158 to 160 °C | CN(C)C(=O)N1CCC(Oc2ccc(C(F)(F)F)cc2)(c2ccccc2)CC1
129 to 130 °C | COc1cc2c(cc1OCc1ccccc1)CCCC(=O)N2Cc1cc(OC)c(OC)c(OC)c1
78.1 °C | Cn1cccc1C(=O)NCCO
136 to 138 °C | CC(C)(C(=O)N(O)Cc1ccccc1Cl)C(Cl)Cl
120 to 125 °C | Cc1cn2cccc(OCc3c(Cl)ccc(S(=O)(=O)N4CCC[C@H]4C(=O)NCCCNC(=O)c4ccc(C=NN)cc4)c3Cl)c2n1
48 to 49 °C | CCN1CCCC1CNC(=O)c1c(O)c(Cl)cc(Cl)c1OC (single isomer, unassigned; (-))
148 to 150 °C | O=C1OC[C@@H](CF)N1c1nc(-c2ccc(Br)cc2)cs1
> 300 °C | Nc1c2c(nc3[nH]c4ccccc4c13)CCCC2=O
37 to 39 °C | C=CC1CCCC(=O)N1Cc1ccccc1Cl (stereo not given)
177 to 178 °C | C=CCn1c(=O)c2cc(C(=O)OCC)cn2c2ccccc21
176 to 178 °C | CCOCc1nc2c(N)nc3ccccc3c2n1CCCCCS(N)(=O)=O
204 to 205 °C | O=C(Nc1ccc(N2CCCC2)nc1)c1cc2ccc(C(F)(F)F)nc2n1Cc1cccc(F)c1
155 to 160 °C | O=C(NCc1ccccc1)c1ccc2[nH]ccc2c1
202 °C | CN1CCC(c2c[nH]c3cc(F)c(OS(=O)(=O)c4c(F)cccc4F)cc23)CC1
125 to 130 °C | O=C(c1ccc(-c2ccsc2)cc1Cl)c1cccc2c1Nc1ncccc1CN2
229 to 230 °C | CC1CN(c2ccc(NC=C3C(=O)NC(=O)c4ccc(Br)cc43)cc2)CC(C)N1 (stereo not given)
106 to 108 °C | CC(C)c1cn2nc(Cl)ccc2n1
70 °C | CCN(CC)C(=O)C(C)Cc1cc(-c2ccccc2)cc2ccccc12 (stereo not given)
204 to 205 °C | COC(=O)c1ccccc1S(=O)(=O)NC(=O)Nc1nc(Cl)c(C)c(OC)n1
160 to 162 °C | Cc1c(SCCCCSCCn2c([N+](=O)[O-])cnc2C)ccnc1CSc1nc2ccccc2[nH]1
101 °C | Cc1c(C)c2ccc(OCCCCCc3ccccc3)cc2oc1=O
105 to 106 °C | CCOC(=O)c1cnn2c1c(Cl)nc1ccccc12
267 to 272 °C | CN1CCN(C(=O)Nc2ccc3c(c2)NC(=O)/C3=C\c2ccc[nH]2)C1=O

melting point | SMILES
100 to 103 °C | CCOCCOc1ccc(C(C)C)c(NC(=O)CN2CCN(CCSc3nc4ccccc4o3)CC2)c1C(C)C
250 to 251 °C | O=C(O)C1CCc2c(c3cccc(F)c3n2C(=O)c2ccccc2)C1 (stereo not given)
66 to 67 °C | CN(CCCCN1C(=O)C=CC1=O)c1ccccc1
243 to 245 °C | CN(C)S(=O)(=O)c1ccc2c(c1)S(=O)(=O)NC(C1CCCCC1)N2 (stereo not given)
73 to 75 °C | CCOC(=O)c1cnoc1-c1ccc(-c2ccccc2)cc1
173 to 174 °C | CCOC(=O)N1CCN(c2cn(Cc3ccccc3)c3cc(OC)ccc3c2=O)CC1
255 to 256 °C | O=C1NCCc2c(-c3ccsc3)[nH]c3cccc1c23
190 to 192 °C | CC1CCC(=NNc2ccccc2)c2ncc(Br)c(=O)n21 (stereo not given)
118 to 120 °C | CCNC(=O)c1cccc([N+](=O)[O-])c1
102 to 105 °C | ON=CCOc1ccc(Oc2ccccc2)cc1
136 to 137 °C | COc1cc(N)c(Cl)cc1C(=O)NCC1CCC(C)N1Cc1ccccc1 (stereo not given)
99 to 101 °C | Cc1ccc(S(=O)(=O)OCC2Cc3cccc(-c4ccccc4F)c3O2)cc1 (stereo not given)
95 to 97 °C | Nc1c(C(=O)c2cccnc2N2CCOCC2)oc2ccc(Cl)cc12
95 to 101 °C | COc1ccccc1NC(=O)Nc1nc(NC(C)C)nc(N(CCC(=O)O)Cc2ccc(Cl)c(Cl)c2)n1
204 to 205 °C | COc1cc2c3c(cccc3c1N1CCCCC1)C(=O)N(O)C2=O
40 to 41 °C | COc1ccc(C2(O)OC(=O)C(c3ccc4nsnc4c3)=C2Cc2cc(OC)c(OC3CCCC3)c(OC)c2)cc1 (stereo not given)
85 to 85.5 °C | COCCOc1ccc(/C=C/C(=O)NS(=O)(=O)NCCc2ccccc2)c(Oc2ncc(C(F)(F)F)cc2Cl)c1
195 to 197 °C | Nc1nc(Cl)nc2c1ncn2C1C=CCCC1 (stereo not given)
> 300 °C | O=C(Nc1nnn[nH]1)c1cnc2sc3ccc(F)cc3n2c1=O
94 to 95 °C | CN1OCCN(c2ccc(Cl)cc2Cl)C1=O
110 to 113 °C | C=CCN1C(=O)NCC1c1ccc(OC)c(OC2CC3CCC2C3)c1 (stereo not given)
161 to 163 °C | OCN1CCN=C1CC(c1ccccc1)c1ccccc1
180 °C | CN(C(=O)c1ccccc1N(CC(=O)N1CCCC(C)(C)C1)C(=O)CN1C(=O)c2ccccc2C1=O)c1ccccc1

From a melting point compilation (Tetko et al.; mined from patent text by program, amines drawn as free bases though some values may be those of a salt)
